Test results published in patent US8258145B2, “Method of treating brain cancer” (Myrexis, Inc., priority 2005, dated 2012).

Each compound was assayed on T-47D (assay: Caspase cascade activation (caspase activity ratio and potency), fluorogenic N-(Ac-DEVD)-N'-ethoxycarbonyl-R110 substrate). Conditions: Homo sapiens, T47D; T-47D (24 hr).
Assay type: cell-based, Human
Protocol: Human breast cancer cell lines T-47D and DLD-1 were grown according to media component mixtures designated by American Type Culture Collection+10% FCS (Invitrogen Corporation), in a 5% CO2−95% humidity incubator at 37° C. T-47D and DLD-1 cells were maintained at a cell density between 50 and 80% confluency at a cell density of 0.1 to 0.6×10^6 cells/mL. Cells were harvested at 600×g and resuspended at 0.65×10^6 cells/mL into appropriate media+10% FCS. An aliquot of 22.5 μL of cells was added to a well of a 384-well microtiter plate containing 2.5 μL of a 10% DMSO in RPMI-1640 media solution containing 0.16 to 100 μM of (2-chloro-quinazolin-4-yl)-(4-methoxy-phenyl)-methyl-amine or other test compound (0.016 to 10 μM final). An aliquot of 22.5 μL of cells was added to a well of a 384-well microtiter plate containing 2.5 μL of a 10% DMSO in RPMI-1640 media solution without test compound as the control sample. […] […] The samples were mixed by agitation and incubated at room temperature. Using a fluorescent plate reader (Model SPECTRAfluor Plus, Tecan), an initial reading (T=0) was made approximately 1-2 min after addition of the substrate solution, employing excitation at 485 nm and emission at 530 nm, to determine the background fluorescence of the control sample. After the 3 h incubation, the samples were read for fluorescence as above (T=3 h).
The Relative Fluorescence Unit values (RFU) were used to calculate the sample readings as follows: RFU(T=3h)−Control RFU(T=0)=Net RFU(T=3h)
The activity of caspase cascade activation was determined by the ratio of the net RFU value for (2-chloro-quinazolin-4-yl)-(4-methoxy-phenyl)-methyl-amine or other test compounds to that of control samples. The EC50 (nM) was determined by a sigmoidal dose-response calculation (Prism 3.0, GraphPad Software Inc.).

EC50 | Compound
29 nM | CNc1nc(N(C)c2ccc(N(C)C)cc2)c2ccccc2n1 [Example 47, (2-Methylamino-quinazolin-4-yl)-(4-dimethylaminophenyl)-methylamine]

Same assay, conditions: T-47D (24 hr)

Compound | Caspase activity Ratio (net RFU of test compound to control)
Cc1ccc(N(C)c2nc(Cl)nc3ccccc23)cc1 [Example 2, (2-Chloro-quinazolin-4-yl)-(4-methyl-phenyl)-methyl-amine] | 6.7
CN(c1ccc(Cl)cc1)c1nc(Cl)nc2ccccc12 [Example 3, (2-Chloro-quinazolin-4-yl)-(4-chloro-phenyl)-methyl-amine] | 8.1
CN(c1ccc(OC(F)(F)F)cc1)c1nc(Cl)nc2ccccc12 [Example 4, (2-Chloro-quinazolin-4-yl)-(4-trifluoromethoxy-phenyl)-methyl-amine] | 10.3
COc1ccc(N(C)c2nc(N3CCOCC3)nc3ccccc23)cc1 [Example 6, (4-Methoxy-phenyl)-methyl-(2-morpholin-4-yl-quinazolin-4-yl)-amine] | 5.7
COc1ccc(N(C)c2nc(Cl)nc3ccccc23)cn1 [Example 7, (2-Chloro-quinazolin-4-yl)-(6-methoxy-pyridin-3-yl)-methyl-amine] | 6.7
COc1ccc(N(C)c2nc(CCl)nc3ccccc23)cc1 [Example 22, (2-Chloromethyl-quinazolin-4-yl)-(4-methoxy-phenyl)-methyl-amine] | 6.2
COc1cccc(N(C)c2nc(Cl)nc3ccccc23)c1OC [Example 24, (2-Chloro-quinazolin-4-yl)-(2,3-dimethoxy-phenyl)-methyl-amine] | 4.5
Cc1nc(N(C)c2ccc(OC(F)F)cc2)c2ccccc2n1 [Example 25, (4-Difluoromethoxy-phenyl)-(2-methyl-quinazolin-4-yl)-methyl-amine] | 6.7
COc1ccc(N(C)c2nc(C)nc3ccccc23)cc1F [Example 26, (3-Fluoro-4-methoxy-phenyl)-(2-methyl-quinazolin-4-yl)-methyl-amine] | 7.6
Cc1nc(N(C)c2ccc(OC(C)C)cc2)c2ccccc2n1 [Example 27, (4-Isopropoxy-phenyl)-(2-methyl-quinazolin-4-yl)-methyl-amine] | 6.2
CCc1ccc(N(C)c2nc(C)nc3ccccc23)cc1 [Example 28, (4-Ethyl-phenyl)-(2-methyl-quinazolin-4-yl)-methyl-amine] | 6.3
COc1ccc(N(C)c2nc(Cl)nc3cccc(Cl)c23)cc1 [Example 30, (2,5-Dichloro-quinazolin-4-yl)-(4-methoxy-phenyl)-methyl-amine] | 10.6
COc1ccc(N(C)c2nc(C)nc3cccc(OC)c23)cc1 [Example 31, (5-Methoxy-2-methyl-quinazolin-4-yl)-(4-methoxy-phenyl)-methyl-amine] | 8.3
COc1ccc(N(C)c2nc(C)nc3ccccc23)c(F)c1 [Example 34, (2-Fluoro-4-methoxy-phenyl)-(2-methyl-quinazolin-4-yl)-methyl-amine] | 6.9
CCOc1ccc(N(C)c2nc(C)nc3ccccc23)cc1 [Example 36, (4-Ethoxy-phenyl)-(2-methyl-quinazolin-4-yl)-methyl-amine] | 5.2
COc1ccc(N(C)c2nc(SC)nc3ccccc23)cc1 [Example 37, (2-Methylthio-quinazolin-4-yl)-(4-methoxy-phenyl)-methyl-amine] | 5.2
COc1ccc(N(C)c2nc(N(C)C)nc3ccccc23)cc1 [Example 38, (2-Dimethylamino-quinazolin-4-yl)-(4-methoxy-phenyl)-methyl-amine] | 8.2
COc1ccc(N(C)c2nc(C)nc3ccccc23)nc1 [Example 41, (5-Methoxy-pyridin-2-yl)-(2-methyl-quinazolin-4-yl)-methyl-amine] | 5.0
COc1ccc(N(C)c2nc(NCc3ccccc3)nc3ccccc23)cc1 [Example 42, (2-Benzylamino-quinazolin-4-yl)-(4-methoxyphenyl)-methylamine] | 8.2
Cc1nc(N(C)c2ccc(N(C)C)cc2)c2cc([N+](=O)[O-])ccc2n1 [Example 44, (2-Methyl-6-nitroquinazolin-4-yl)-(4-dimethylaminophenyl)-methylamine] | 2.6
CN(C)c1ccc(N(C)c2nc(Cl)nc3ccccc23)cc1 [Example 45, (2-Chloro-quinazolin-4-yl)-(4-dimethylaminophenyl)-methylamine] | 4.2
COc1ccc(N(C)c2nc(N(C)C)nc3ccc([N+](=O)[O-])cc23)cc1 [Example 46, (2-Dimethylamino-6-nitroquinazolin-4-yl)-(4-methoxyphenyl)-methylamine] | 4.2
CNc1nc(N(C)c2ccc(N(C)C)cc2)c2ccccc2n1 [Example 47, (2-Methylamino-quinazolin-4-yl)-(4-dimethylaminophenyl)-methylamine] | 3.9
CC(=O)N(C)c1nc(N(C)c2ccc(N(C)C)cc2)c2ccccc2n1 [Example 48, [2-(N-Methyl-acetamido)-quinazolin-4-yl]-(4-dimethylaminophenyl)-methylamine] | 2.4
CSc1ccc(N(C)c2nc(C)nc3ccccc23)cc1 [Example 49, (4-Methylthio-phenyl)-(2-methyl-quinazolin-4-yl)-methylamine] | 7.5

Same assay, conditions: T-47D (48 hr)

Compound | Caspase activity Ratio (net RFU of test compound to control)
COc1ccc(N(C)c2nc(NO)nc3ccccc23)cc1 [Example 5, N^2-Hydroxyl-N^4-(4-methoxy-phenyl)-N^4-methyl-quinazoline-2,4-diamine] | 12.8
COc1ccc(N(C)c2nc(N3CCOCC3)nc3ccccc23)cc1 [Example 6, (4-Methoxy-phenyl)-methyl-(2-morpholin-4-yl-quinazolin-4-yl)-amine] | 11.5
CCN(c1ccc(OC)cc1)c1nc(Cl)nc2ccccc12 [Example 8, (2-Chloro-quinazolin-4-yl)-ethyl-(4-methoxy-phenyl)-amine] | 6.1
COc1ccc(N(C)c2nc(Cl)nc3ccccc23)c(OC)c1 [Example 9, (2-Chloro-quinazolin-4-yl)-(2,4-dimethoxy-phenyl)-methyl-amine] | 12.4
COc1cccc(N(C)c2nc(Cl)nc3ccccc23)c1 [Example 10, (2-Chloro-quinazolin-4-yl)-(3-methoxy-phenyl)-methyl-amine] | 14.7
COc1ccc(N(C)c2nc(CF)nc3ccccc23)cc1 [Example 12, (2-Fluoromethyl-quinazolin-4-yl)-(4-methoxy-phenyl)-methyl-amine] | 9.0
COc1ccc(N(C)c2nc(Cl)nc3ccc(C)cc23)cc1 [Example 13, (2-Chloro-6-methyl-quinazolin-4-yl)-(4-methoxy-phenyl)-methyl-amine] | 4.9
COc1ccc(N(C)c2nc(Cl)nc3cccc(C)c23)cc1 [Example 14, (2-Chloro-5-methyl-quinazolin-4-yl)-(4-methoxy-phenyl)-methyl-amine] | 10.8
COc1ccc(N(C)c2nc(Cl)nc3c(C)cccc23)cc1 [Example 15, (2-Chloro-8-methyl-quinazolin-4-yl)-(4-methoxy-phenyl)-methyl-amine] | 7.1
COc1ccc(N(C)c2nc(Cl)nc3ccc(Cl)cc23)cc1 [Example 16, (2,6-Dichloro-quinazolin-4-yl)-(4-methoxy-phenyl)-methyl-amine] | 6.5
CN(c1ccc2c(c1)OCO2)c1nc(Cl)nc2ccccc12 [Example 18, (2-Chloro-quinazolin-4-yl)-(3,4-methylenedioxyphenyl)-methyl-amine] | 12.5
COc1ccc(N(C)c2nc(Cl)nc3ccccc23)cc1OC [Example 19, (2-Chloro-quinazolin-4-yl)-(3,4-dimethoxy-phenyl)-methyl-amine] | 13.1
CCCOc1ccc(N(C)c2nc(Cl)nc3ccccc23)cc1 [Example 20, (2-Chloro-quinazolin-4-yl)-(4-propoxy-phenyl)-methyl-amine] | 11.3
COc1ccc(N(C)c2nc(CCl)nc3ccccc23)cc1 [Example 22, (2-Chloromethyl-quinazolin-4-yl)-(4-methoxy-phenyl)-methyl-amine] | 5.7
COc1ccc(N(C)c2nc(Cl)nc3c(Cl)cccc23)cc1 [Example 29, (2,8-Dichloro-quinazolin-4-yl)-(4-methoxy-phenyl)-methyl-amine] | 7.8
CCOc1ccc(N(C)c2nc(Cl)nc3ccccc23)cc1 [Example 32, (2-Chloro-quinazolin-4-yl)-(4-ethoxy-phenyl)-methylamine] | 9.0
